According to patent publication US12076312B2, “Repurposing anti-androgen therapy for COVID-19 and immunotherapy” (Wisconsin Alumni Research Foundation, priority 2021, dated 2024):

How the values were obtained:
AR = AR (Homo sapiens, UniProt P10275); settings: cited from earlier work
[1] = biological target: mutant AR forms (F877L mutation) (Homo sapiens, UniProt P10275, F877L); settings: F877L mutation that confers resistance to enzalutamide; cited from earlier work
[2] = system: AR mRNA in A549 lung cancer cells; test: AR mRNA level by qRT-PCR; type: cell-based
Procedure: (§1) From two independent biological experiments with 3 replicates (n=6), RNA samples were collected with TRIzol reagent (Invitrogen) and isolated using RNeasy Mini Kit (Qiagen). RNA concentrations were measured using A260 nm/A280 nm spectroscopy on the Nanodrop ND-1000 (Thermo-scientific). For each RNA sample, 1000 ng of RNA was reversed transcripted into first-strand cDNA using the High-Capacity RNA-to-cDNA Kit (Applied Biosystems).
(§2) Three independent biological replicates of mRNA samples were collected for each condition, and three technical replicates were run for each sample in qRT-PCR. The fold changes and p-values were calculated with the ΔΔCt method32 and two-sample t-test, respectively. Ubiquitin C (UBC) was used as the housekeeping gene for normalization.

[3] = system: AR mRNA in NCI-H2228 lung cancer cells; test: AR mRNA level by qRT-PCR; type: cell-based
Procedure: as §1, §2

[4] = system: AR protein translocation in A549; test: AR immunofluorescent imaging, nuclear translocation; settings: A549, 1 nM R1881, 24 h
Procedure: (§4) After incubating in blocking buffer (5% normal goat serum and 0.2% fish skin gelatin in 0.2% Tween/PBS) for 1 hour at room temperature, the cells were stained with primary antibodies overnight at 4° C. […] Immunofluorescence images were captured on Leica TCS WLL SP8 Laser scanning confocal microscopy (Leica Microsystems) using 63× oil immersion objective (Scale bar: 10 μm). Multiple images were taken at different fields of coverslip to obtain at least 100 cells for AR quantification. The sum of pixel intensities of AR signal within the nucleus and cytoplasm was quantified using a custom MATLAB program (R2017b, MathWorks). Briefly, the program utilized the actin and DRAQ5 channels to create masks for the cytoplasm and nucleus regions, respectively. These masks were then used to determine the AR signal within cytoplasm and nucleus, and the nucleus-to-cytoplasm ratio of AR signal was calculated by dividing the AR signal inside the nucleus by the AR signal within the entire cell (nucleus and cytoplasm).

[5] = system: AR protein translocation in H2228; test: as above; settings: H2228, 1 nM R1881, 24 h
Procedure: as §4

[6] = system: AR responsive genes in A549 cells; test: AR signaling gene panel qRT-PCR; type: cell-based; settings: A549, enzalutamide 5 μM, 24 h
Procedure: as §1
(§3) Changes in expression levels of AR signaling genes were screened using Bio-Rad's PrimePCR pathway 384-well panel: Androgen Receptor Signaling SAB target list (Cat #10047228) and Androgen Receptor Nuclear Signaling (Cat #10025068). […] Two independent biological replicates of mRNA samples were collected for each condition, and one reaction was run for each sample. If necessary, additional technical replicates were run to rule out any outlier. Relative mRNA expressions and p-values were calculated using the ΔΔCt method and two-sample t-test in Bio-Rad CFX Maestro program (version: 4.0.2325.0418). […] The stabilities of housekeeping genes were checked using the geNorm algorithm provided in CFX Maestro. M values of all housekeeping genes used in this study are less than 0.5, which is considered ideal. Log 2-transformed expression levels and −log 10 (p-value) of all treatment groups were plotted as Bubble and Color map graph in the Origin 2020 software.

[7] = system: AR responsive genes in NCI-H2228 cells; test: AR signaling gene panel qRT-PCR; type: cell-based; settings: NCI-H2228, enzalutamide 5 μM, 24 h (FIG. 2C)
Procedure: as §1, §3

Chain of mutant AR forms (F877L mutation) (P10275 whole entry F877L): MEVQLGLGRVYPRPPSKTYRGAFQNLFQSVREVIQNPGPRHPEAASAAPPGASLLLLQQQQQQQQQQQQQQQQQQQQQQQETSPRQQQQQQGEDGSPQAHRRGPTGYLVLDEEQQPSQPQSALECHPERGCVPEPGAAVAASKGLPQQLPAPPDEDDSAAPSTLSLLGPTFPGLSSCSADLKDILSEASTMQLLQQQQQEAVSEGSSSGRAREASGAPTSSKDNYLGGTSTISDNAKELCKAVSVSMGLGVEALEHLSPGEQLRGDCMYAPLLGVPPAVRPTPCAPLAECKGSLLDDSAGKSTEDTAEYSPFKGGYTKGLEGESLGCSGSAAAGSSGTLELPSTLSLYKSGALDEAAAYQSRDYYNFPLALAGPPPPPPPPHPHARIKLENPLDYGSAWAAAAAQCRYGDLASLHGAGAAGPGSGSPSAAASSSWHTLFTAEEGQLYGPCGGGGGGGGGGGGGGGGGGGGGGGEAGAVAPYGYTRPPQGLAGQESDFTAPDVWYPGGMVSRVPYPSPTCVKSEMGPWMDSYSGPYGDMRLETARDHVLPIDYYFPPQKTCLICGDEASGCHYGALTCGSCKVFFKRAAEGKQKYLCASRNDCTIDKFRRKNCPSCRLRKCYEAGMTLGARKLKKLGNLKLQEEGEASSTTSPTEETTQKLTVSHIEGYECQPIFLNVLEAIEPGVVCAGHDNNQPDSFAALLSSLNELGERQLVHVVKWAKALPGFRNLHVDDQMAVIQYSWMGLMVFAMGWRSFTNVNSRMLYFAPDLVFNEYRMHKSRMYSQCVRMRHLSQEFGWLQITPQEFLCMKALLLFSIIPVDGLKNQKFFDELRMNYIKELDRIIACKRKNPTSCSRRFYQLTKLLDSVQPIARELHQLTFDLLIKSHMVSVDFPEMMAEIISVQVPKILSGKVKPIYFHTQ
Chain of AR (P10275 whole entry): as the sequence (P10275 whole entry F877L) above, with L877F counted along it

Compound: CC(O)c1cc(C(=O)N[C@@H](C)Cn2ccc(-c3ccc(C#N)c(Cl)c3)n2)[nH]n1 (stereo partly shown) [Darolutamide]
- greater affinity for AR compared with enzalutamide (AR): 8 fold
- activity against mutant AR forms [1]: Remains antagonistic

Compound: C[C@]1(O)CC[C@H]2[C@@H]3CCC4=CC(=O)CCC4=C3C=C[C@@]21C [R1881, Metribolone]
- AR mRNA level ([2]; male A549, R1881 1 nM, 2, 4, 8 and 24 h vs control): temporally downregulated
- AR expression ([3]; female H2228, androgen (R1881) stimulation): minimal changes
- AR transport to the nucleus [4]: efficiently transported to the nucleus
- AR transport to the nucleus [5]: efficiently transported to the nucleus

Compound: CNC(=O)c1ccc(N2C(=S)N(c3ccc(C#N)c(C(F)(F)F)c3)C(=O)C2(C)C)cc1F [enzalutamide]
- AR expression ([2]; A549, enzalutamide without ligand stimulation): increased AR expression
- R1881-induced downregulation of AR expression ([2]; male A549, pre-treatment with enzalutamide 30 min before 1 nM R1881): blocked
- AR expression ([3]; H2228, enzalutamide without ligand stimulation): increased AR expression
- FOS expression log 2FC ([6]; p-value=0.008): −1.627 log 2FC
- IL6 expression log 2FC ([6]; p-value=0.023): −2.41 log 2FC
- MAF expression log 2FC ([6]; p-value=0.035): 2.44 log 2FC
- IL6 expression [7]: significantly upregulated
